This note sets out measurements from patent US9499550B2 (BRISTOL-MYERS SQUIBB COMPANY, priority 2012, dated 2016).

Like-named read-outs stand apart in the source and are kept apart here.

In experiment [1] the test system is HCV genotype 1a (H77 strain) replicon in HUH-7 cells. Kind of experiment: HCV replicon luciferase reporter assay, genotype 1a. The settings on record: Hepatitis C virus, Huh-7, 72 h, HCV genotype 1a replicon luciferase assay, 3 days incubation. The experiment is classed as cell-based. An excerpt: (§1) Generation of HCV Replicon
(§2) An HCV replicon whole cell system was established as described by Lohmann V, Korner F, Koch J, Herian U, Theilmann L, Bartenschlager R., Science 285(5424):110-3 (1999) and modified to introduce a luciferase reporter, as first described by Krieger et al (Krieger N, Lohmann V, and Bartenschlager R, J. Virol. 75(10):4614-4624 (2001)). CDNA encoding a humanized form of the Renilla luciferase gene and a linker sequence fused directly to the 3′-end of the luciferase gene were introduced into the replicon construct using an Asc1 restriction site located in core, directly upstream of the neomycin marker gene. The adaptive mutation at position 1179 (serine to isoleucine) was also introduced (Blight K J, Kolykhalov, A A, Rice, C M, Science 290(5498):1972-1974). A stable cell line constitutively expressing this HCV replicon construct was generated by first linearizing plasmid DNAs with ScaI. RNA transcripts were synthesized in vitro using the T7 MegaScript transcription kit (Ambion, Austin, Tex.) according to manufacturer's directions. In vitro transcripts of the cDNA were transfected into the human hepatoma cell line, HUH-7. […] Resulting cell lines were characterized for positive and negative strand RNA production and protein production over time.
A stable HCV replicon luciferase reporter cell line representing the genotype 1a H77 strain (Yanagi M, Purcell R H, Emerson S U, et al. Transcripts from a single full-length cDNA clone of hepatitis C virus are infectious when directly transfected into the liver of a chimpanzee. Proc Natl Acad Sci USA 1997; 94(16):8738-8743) was generated as described previously for the genotype 1b(Con1) replicon luciferase cell line. The replicon construct was modified by introducing mutations were introduced into the genes encoding the NS3 helicase domain (proline replaced by leucine at position 1496) and NSSA (serine to isoleucine at position 2204) to improve replication in cell culture.
(§3) HCV Replicon Luciferase Reporter Assay
(§4) HCV replicon luciferase assays were developed to monitor the inhibitory effects of compounds described in the disclosure on HCV genotypes 1a and 1b viral replication. HUH-7 cells, constitutively expressing the HCV replicon, were grown in Dulbecco's Modified Eagle Media (DMEM) (Gibco-BRL) containing 10% Fetal calf serum (FCS) (Sigma) and 1 mg/mL G418 (Gibco-BRL). Compounds were serially diluted 3 folds in DMSO for a twenty-point titration and subsequently transferred to sterile 384-well tissue-culture treated plates (Corning cat #3571). The plates were then seeded with 50 μL of cells at a density of 3.0×10^3 cells/well in DMEM containing 4% FCS (final DMSO concentration at 0.5%). After 3 days incubation at 37° C., cells were analyzed for Renilla Luciferase activity using the EnduRen as substrate (Promega cat #E6485). The EnduRen substrate was diluted in DMEM and then added to the plates to a final concentration of 7.5 μM. The plates were incubated for 2 hrs at 37° C. and then read immediately for 30 seconds with Viewlux Imager (PerkinElmer) using a luminescence program. To assess cytotoxicity of compounds, CC50 values were generated by multiplexing the EnduRen-containing plates with Cell Titer-Blue (Promega, cat # G8082). Cell-Titer Blue (3 μL) was added to each well and incubated for 8 hrs at 37° C. The fluorescence signal from each well was read, with an excitation wavelength at 525/10 nm and an emission wavelength of 598/10 nm, using the Viewlux Imager.
(§5) The EC50 values for compounds were calculated by using a four-parameter logistic equation: y=A+((B−A)/(1+((C/x)^D))), where A and B denotes minimal and maximal % inhibition, respectively, C is the EC50, D is the hill slope and x represents compound concentration.

For experiment [2], the system named is HCV genotype 1b (Con1) replicon in HUH-7 cells. Kind of experiment: HCV replicon luciferase reporter assay, genotype 1b. The experiment is classed as cell-based. The settings on record: Hepatitis C virus, Huh-7, 72 h, HCV genotype 1b replicon luciferase assay, 3 days incubation.
Excerpt: as §1
as §2, with “time. […]” for “time.”
as §3, §4, §5

[3] abbreviates: range class, read-out: LE_1a (EC50, range).
Where [4] appears, read: range class, read-out: LE_1b (EC50, range).

For `COc1cnc(O[C@@H]2C[C@H]3C(=O)N[C@]4(C(=O)NS(=O)(=O)C5(F)CC5)C[C@H]4/C=C\CC[C@@H](C)C[C@@H](C)[C@H](NC(=O)OC(C)(C)C(F)(F)F)C(=O)N3C2)c2ccccc12` [Compound 14, 1,1,1-trifluoro-2-methylpropan-2-yl((2R,6S,7R,9R,13aS,14aR,16aS,Z)-14a-(((1-fluorocyclopropyl)sulfonyl)carbamoyl)-2-((4-methoxyisoquinolin-1-yl)oxy)-7,9-dimethyl-5,16-dioxo-1,2,3,5,6,7,8,9,10,11,13a,14,14a,15,16,16a-hexadecahydrocyclopropa[e]pyrrolo[1,2-a][1,4]diazacyclopentadecin-6-yl)carbamate], the EC50 in experiment [1] (setting [3]) and in experiment [2] (setting [4]) was less than 5.46 nM in each case.
For the compound `COc1cnc(O[C@@H]2C[C@H]3C(=O)N[C@]4(C(=O)NS(=O)(=O)C5(F)CC5)C[C@H]4/C=C\CC[C@H](C)C[C@@H](C)[C@H](NC(=O)OC(C)(C)C(F)(F)F)C(=O)N3C2)c2ccccc12` [Compound 15, 1,1,1-trifluoro-2-methylpropan-2-yl((2R,6S,7R,9S,13aS,14aR,16aS,Z)-14a-(((1-fluorocyclopropyl)sulfonyl)carbamoyl)-2-((4-methoxyisoquinolin-1-yl)oxy)-7,9-dimethyl-5,16-dioxo-1,2,3,5,6,7,8,9,10,11,13a,14,14a,15,16,16a-hexadecahydrocyclopropa[e]pyrrolo[1,2-a][1,4]diazacyclopentadecin-6-yl)carbamate], the EC50 in experiment [1] (setting [3]) and in experiment [2] (setting [4]) was less than 5.46 nM in each case.
Regarding `CCOc1cnc(O[C@@H]2C[C@H]3C(=O)N[C@]4(C(=O)NS(=O)(=O)C5CC5)C[C@H]4/C=C\CC[C@@H](C)C[C@@H](C)[C@H](NC(=O)OC(C)(C)C)C(=O)N3C2)c2ccccc12` [Compound 16, tert-butyl ((2R,6S,7R,9R,13aS,14aR,16aS,Z)-14a-((cyclopropylsulfonyl)carbamoyl)-2-((4-ethoxyisoquinolin-1-yl)oxy)-7,9-dimethyl-5,16-dioxo-1,2,3,5,6,7,8,9,10,11,13a,14,14a,15,16,16a-hexadecahydrocyclopropa[e]pyrrolo[1,2-a][1,4]diazacyclopentadecin-6-yl)carbamate], the EC50 in experiment [1] (setting [3]) and in experiment [2] (setting [4]) was less than 5.46 nM each time.
On to `CCOc1cnc(O[C@@H]2C[C@H]3C(=O)N[C@]4(C(=O)NS(=O)(=O)C5CC5)C[C@H]4/C=C\CC[C@@H](C)C[C@@H](C)[C@H](NC(=O)OC(C)(C)C(F)(F)F)C(=O)N3C2)c2ccccc12` [Compound 18, 1,1,1-trifluoro-2-methylpropan-2-yl((2R,6S,7R,9R,13aS,14aR,16aS,Z)-14a-((cyclopropylsulfonyl)carbamoyl)-2-((4-ethoxyisoquinolin-1-yl)oxy)-7,9-dimethyl-5,16-dioxo-1,2,3,5,6,7,8,9,10,11,13a,14,14a,15,16,16a-hexadecahydrocyclopropa[e]pyrrolo[1,2-a][1,4]diazacyclopentadecin-6-yl)carbamate], for which the 50% effective concentration (EC50) in experiment [1] (setting [3]) and in experiment [2] (setting [4]) was less than 5.46 nM throughout.
On to `CC(C)Oc1cnc(O[C@@H]2C[C@H]3C(=O)N[C@]4(C(=O)NS(=O)(=O)C5CC5)C[C@H]4/C=C\CC[C@@H](C)C[C@@H](C)[C@H](NC(=O)OC(C)(C)C(F)(F)F)C(=O)N3C2)c2ccccc12` [Compound 20, 1,1,1-trifluoro-2-methylpropan-2-yl((2R,6S,7R,9R,13aS,14aR,16aS,Z)-14a-((cyclopropylsulfonyl)carbamoyl)-2-((4-isopropoxyisoquinolin-1-yl)oxy)-7,9-dimethyl-5,16-dioxo-1,2,3,5,6,7,8,9,10,11,13a,14,14a,15,16,16a-hexadecahydrocyclopropa[e]pyrrolo[1,2-a][1,4]diazacyclopentadecin-6-yl)carbamate], for which the EC50 in experiment [1] (setting [3]) and in experiment [2] (setting [4]) was less than 5.46 nM each time.
For `C[C@@H]1CC/C=C\[C@@H]2C[C@@]2(C(=O)NS(=O)(=O)C2CC2)NC(=O)[C@@H]2C[C@@H](Oc3ncc(OC4CC4)c4ccccc34)CN2C(=O)[C@@H](NC(=O)OC(C)(C)C)[C@H](C)C1` [Compound 22, tert-butyl ((2R,6S,7R,9R,13aS,14aR,16aS,Z)-2-((4-cyclopropoxyisoquinolin-1-yl)oxy)-14a-((cyclopropylsulfonyl)carbamoyl)-7,9-dimethyl-5,16-dioxo-1,2,3,5,6,7,8,9,10,11,13a,14,14a,15,16,16a-hexadecahydrocyclopropa[e]pyrrolo[1,2-a][1,4]diazacyclopentadecin-6-yl)carbamate], the EC50 is less than 5.46 nM in experiment [1] (setting [3]), 0.43 nM in experiment [1] (read-out: LE_1a (EC50)), less than 5.46 nM in experiment [2] (setting [4]) and 0.4 nM in experiment [2] (read-out: LE_1b (EC50)).
For the compound `C[C@@H]1CC/C=C\[C@@H]2C[C@@]2(C(=O)NS(=O)(=O)C2CC2)NC(=O)[C@@H]2C[C@@H](Oc3ncc(OC4CC4)c4ccccc34)CN2C(=O)[C@@H](NC(=O)OC(C)(C)C(F)(F)F)[C@H](C)C1` [Compound 24, 1,1,1-trifluoro-2-methylpropan-2-yl((2R,6S,7R,9R,13aS,14aR,16aS,Z)-2-((4-cyclopropoxyisoquinolin-1-yl)oxy)-14a-((cyclopropylsulfonyl)carbamoyl)-7,9-dimethyl-5,16-dioxo-1,2,3,5,6,7,8,9,10,11,13a,14,14a,15,16,16a-hexadecahydrocyclopropa[e]pyrrolo[1,2-a][1,4]diazacyclopentadecin-6-yl)carbamate], the EC50 in experiment [1] (setting [3]) and in experiment [2] (setting [4]) was less than 5.46 nM throughout.
For `C[C@H]1CC/C=C\[C@@H]2C[C@@]2(C(=O)NS(=O)(=O)C2CC2)NC(=O)[C@@H]2C[C@@H](Oc3ncc(OC4CC4)c4ccccc34)CN2C(=O)[C@@H](NC(=O)OC(C)(C)C(F)(F)F)[C@H](C)C1` [Compound 25, 1,1,1-trifluoro-2-methylpropan-2-yl((2R,6S,7R,9S,13aS,14aR,16aS,Z)-2-((4-cyclopropoxyisoquinolin-1-yl)oxy)-14a-((cyclopropylsulfonyl)carbamoyl)-7,9-dimethyl-5,16-dioxo-1,2,3,5,6,7,8,9,10,11,13a,14,14a,15,16,16a-hexadecahydrocyclopropa[e]pyrrolo[1,2-a][1,4]diazacyclopentadecin-6-yl)carbamate], the EC50 in experiment [1] (setting [3]) and in experiment [2] (setting [4]) was 4.82 to 103 nM each time.
